Patent publication US20230027985A1, “SUBSTITUTED HYDANTOINAMIDES AS ADAMTS7 ANTAGONISTS” (Bayer Aktiengesellschaft, priority 2019, published 2023)

How the values were obtained:
[1] = target: T1, Purified recombinant ADAMTS-7 (rat prodomain/human catalytic domain, SEQ ID No. 01 or 02) (Homo sapiens, UniProt Q9UKP4); experiment: Assay for ADAMTS-7 enzymatic activity (FRET substrate cleavage); format: biochemical; settings: FRET substrate SEQ ID No. 11, 120 min at 32° C.; read-out: ADAMTS7-IC50
T1 construct: rat ADAMTS-7 signal peptide + prodomain (rat 1-217, Q1EHB3) (N); 2xStrep tag (C); 6xHis tag (C); made in house; host or cells: Expi293 cells
T1 sequence (Q9UKP4 237-537): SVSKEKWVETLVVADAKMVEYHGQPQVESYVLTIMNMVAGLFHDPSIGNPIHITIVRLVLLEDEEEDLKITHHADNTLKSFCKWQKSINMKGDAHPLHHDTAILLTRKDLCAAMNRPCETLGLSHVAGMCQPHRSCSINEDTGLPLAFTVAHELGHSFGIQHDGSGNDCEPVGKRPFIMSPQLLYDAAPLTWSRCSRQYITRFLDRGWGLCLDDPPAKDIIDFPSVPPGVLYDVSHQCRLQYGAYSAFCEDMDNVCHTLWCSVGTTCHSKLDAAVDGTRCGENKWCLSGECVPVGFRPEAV
Method in brief: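 About 20 nM enzyme in 20 mM HEPES pH 8.0, 150 mM NaCl, 5 mM CaCl2, 0.004% Brij and 10 μM ZnCl2 was mixed with compound in DMSO and a QXL520-quenched FRET peptide from thrombospondin-1 (275-289). After 120 min at 32 °C, fluorescence was read at 485/520 nm. IC50 came from percent inhibition versus concentration.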

ADAMTS4 = target: T2, ADAMTS4 (Homo sapiens, UniProt O75173); experiment: Selectivity assay for ADAMTS-7 modulators (FRET), ADAMTS4; format: biochemical; settings: 50 nM enzyme (R&D 4307-AD), 1 μM Dabcyl/Edans FRET substrate, 120 min at 32° C.
T2 construct: purchased R&D 4307-AD
T2 sequence (O75173 213-685 limits assumed): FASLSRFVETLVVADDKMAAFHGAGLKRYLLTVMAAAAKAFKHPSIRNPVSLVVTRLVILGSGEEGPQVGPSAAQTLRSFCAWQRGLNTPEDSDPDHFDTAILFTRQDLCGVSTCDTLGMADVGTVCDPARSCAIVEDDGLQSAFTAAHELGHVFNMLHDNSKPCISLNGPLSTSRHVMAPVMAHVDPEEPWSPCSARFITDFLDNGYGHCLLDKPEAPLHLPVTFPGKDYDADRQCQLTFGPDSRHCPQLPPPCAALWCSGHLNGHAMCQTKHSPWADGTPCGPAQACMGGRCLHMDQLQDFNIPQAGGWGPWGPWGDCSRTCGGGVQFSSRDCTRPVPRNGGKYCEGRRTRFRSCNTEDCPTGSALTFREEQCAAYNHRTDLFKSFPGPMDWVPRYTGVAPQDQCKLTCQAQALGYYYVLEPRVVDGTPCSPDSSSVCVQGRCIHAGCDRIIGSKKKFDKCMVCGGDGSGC
Method in brief: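 Enzyme in 50 mM Tris pH 7.5, 150 mM NaCl, 10 mM CaCl2, 0.05% Brij, preincubated with compound in DMSO; reaction started with FRET substrate. Fluorescence increase read after 120 min at 32° C; IC50 from percent inhibition versus compound concentration.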

SMILES | IC50 [1] [nM] | IC50 (ADAMTS4) [nM]
O=C1NC(=O)C(CNC(=O)c2cnn(-c3ccc(F)cc3F)n2)(c2nccs2)N1 (racemic) [Example 115, rac-2-(2,4-difluorophenyl)-N-{[2,5-dioxo-4-(1,3-thiazol-2-yl)imidazolidin-4-yl]methyl}-2H-1,2,3-triazole-4-carboxamide] | 87 | 6600
Cc1ncsc1C1(CNC(=O)c2cnn(-c3ccc(F)cc3)n2)NC(=O)NC1=O (racemic) [Example 131, rac-2-(4-fluorophenyl)-N-{[4-(4-methyl-1,3-thiazol-5-yl)-2,5-dioxoimidazolidin-4-yl]methyl}-2H-1,2,3-triazole-4-carboxamide] | 37 | 2500
O=C1NC(=O)C(CNC(=O)c2cnn(-c3ccccc3)n2)(c2ccccn2)N1 (racemic) [Example 20, rac-N-{[2,5-dioxo-4-(pyridin-2-yl)imidazolidin-4-yl]methyl}-2-phenyl-2H-1,2,3-triazole-4-carboxamide] | 26 | 4800
CC(C)(C)C1(CNC(=O)c2cnn(-c3ccccc3)n2)NC(=O)NC1=O (stereo not drawn) [Example 71, ent-N-[(4-tert-butyl-2,5-dioxoimidazolidin-4-yl)methyl]-2-phenyl-2H-1,2,3-triazole-4-carboxamide] | 47 | 13100
O=C1NC(=O)C(CNC(=O)c2cnn(-c3ccc(F)cc3F)n2)(c2nccs2)N1 (single isomer, unassigned; ent-2) [Example 116, ent-2-(2,4-difluorophenyl)-N-{[2,5-dioxo-4-(1,3-thiazol-2-yl)imidazolidin-4-yl]methyl}-2H-1,2,3-triazole-4-carboxamide] | 78 | 5500
O=C1NC(=O)[C@](CNC(=O)c2cnn(-c3nc4ccccc4s3)n2)(C2CC2)N1 [Example 105, 2-(1,3-benzothiazol-2-yl)-N-{[(4R)-4-cyclopropyl-2,5-dioxoimidazolidin-4-yl]methyl}-2H-1,2,3-triazole-4-carboxamide] | 190 | 11000
O=C1NC(=O)C(CNC(=O)c2cnn(-c3ccccc3)n2)(C2CCCOC2)N1 (single isomer, unassigned; dia1) [Example 84, dia1-N-{[4-(-oxan-3-yl)-2,5-dioxoimidazolidin-4-yl]methyl}-2-phenyl-2H-1,2,3-triazole-4-carboxamide] | 150 | 4000

The next compounds have a lower IC50 [1] than those just listed; values first:

IC50 [1] [nM] | IC50 (ADAMTS4) [nM] | SMILES
7 | 1000 | CC(C)C1(CNC(=O)c2cnn(-c3ccc(Cl)c(F)c3)n2)NC(=O)NC1=O (single isomer, unassigned; ent-2) [Example 125, ent-2-(4-chloro-3-fluorophenyl)-N-[(4-isopropyl-2,5-dioxoimidazolidin-4-yl)methyl]-2H-1,2,3-triazole-4-carboxamide]
5 | 250 | O=C1NC(=O)[C@](CNC(=O)c2cnn(-c3ccc(F)c(Cl)c3)n2)(C2CC2)N1 [Example 29, 2-(3-chloro-4-fluorophenyl)-N-{[(4R)-4-cyclopropyl-2,5-dioxoimidazolidin-4-yl]methyl}-2H-1,2,3-triazole-4-carboxamide]
2 | 200 | Cc1scnc1C1(CNC(=O)c2cnn(-c3ccc(F)cc3)n2)NC(=O)NC1=O (single isomer, unassigned; ent-2) [Example 103]
14 | 4100 | O=C1NC(=O)C(CNC(=O)c2cnn(-c3ccc(F)cc3)n2)(C2CCCCC2)N1 (stereo not drawn) [Example 75, ent-N-[(4-cyclohexyl-2,5-dioxoimidazolidin-4-yl)methyl]-2-(4-fluorophenyl)-2H-1,2,3-triazole-4-carboxamide]
21 | 450 | O=C1NC(=O)[C@](CNC(=O)c2cnn(-c3cccc(Cl)c3)n2)(C2CC2)N1 [Example 10, 2-(3-chlorophenyl)-N-{[(4R)-4-cyclopropyl-2,5-dioxoimidazolidin-4-yl]methyl}-2H-1,2,3-triazole-4-carboxamide]
